Experimental data: article PMC8750417, “Intracellular Amplifiers of Reactive Oxygen Species Affecting Mitochondria as Radiosensitizers” (Cancers, 2021)
Several values for one entry are separate records, joined by “and”; a condition that tells them apart may be missing. Identical values can stand only once. Like-named read-outs stand apart in the source and are kept apart here.

Tests used:
BL-2 cells = test: Cell viability, MTT assay, BL-2; assay type: cell-based, human
Method: Determination of viability of cells in the presence of prodrugs and controls A2780 and BL-2 cells The medium was removed, and the cells were washed two times with DPBS, trypsinated, and resuspended in RPMI 1640 medium (A2780) supplemented with 5% FBS (for 24 h and 48 h assay) or 10% FBS (for 96 h assay) , 1% L-glutamine, and 1% penicillin/streptomycin.
A2780 cells: This suspension was spread in the wells of a 96 -well microtiter plate (25000 cells for A2780 per well per 100 μL) and left standing at 37 °C in the chamber filled with CO2 (5%) for overnight. Stock solutions of prodrugs of different concentra tions (1 μL, solvent dmso, final concentrations in wells were 2, 5, 10, 30, 50 μM) were added to the wells and incubated for specific periods of time. Four experiments were conducted for each concentration of the prodrug. Finally, 3-(4,5-dimethylthiazol-2-yl)-2,5-diphenyltetrazolium bromide (MTT, 20 μL of the solution prepared by dissolving MTT (5 mg) in DPBS buffer (1 mL)) was added to each well, incubated for 3 h, treated with sodium dodecyl sulfate (SDS) solution (90 μL, 10% solution in 0.01 M aqueous HC l), and incubated overnight. Afterward, the intensity of the absorbance at 590 nm was measured.
MTT is converted in live cells to blue dye with the absorbance maximum λ max at 590 nm.
The absorbance at 690 nm was taken as a baseline value. The baseline corrected absorbance at 590 nm (A(590 nm) − A(690 nm)) was applied to calculate the relative number of viable cells. IC50 values were determined by fitting the experimental data expressing the number of viable cells (%, Y-axis) versus drug concentration (μM, X-axis) with a line curve and the X-axis value corresponding to 50% viability was considered as IC50 value according to the line curve (Figure S50, Table S2).
BL-2 cells: The cells were centrifuged, the medium was removed, and the cells were washed two times with DPBS and re-suspended in RPMI 1640 medium containing 5% (48 h incubation) or 10% FBS (96 h incubation), 1% L-glutamine, and 1% penicillin/ streptomycin. This suspension was spread in the wells of a 96-well microtiter plate (50000 cells per well per 100 μL). Other steps were identical to those was described in determination of viability of adherent cells (given above) (Table S3).

A2780 cells [1] = test: Organelle-specific staining in A2780 cells (R123 MMP, AO lysosomes, ER, Golgi); assay type: cell-based, human; settings: for effect on lysosomes (LY), endoplasmic reticulum (ER) and Golgi (GO) staining: A2780, 30 µM, 1-4 h; for MMP compared to the MMP of untreated cells: R123
Method: Effect of prodrugs and controls on cellular organelles in A2780 cells: lysosomes (LY), endoplasmic reticulum (ER), Golgi (G) and mitochondria (Mit) (Figures 3, S56) A2780 cells were seeded in RPMI 1640 medium containing 5% FBS, 1% L-glutamine and 1% penicillin/streptomycin in a 24-well microtiter plate (total volume 0.5 mL) at a density of 200 cells/µL one day before the experiment. On the day of the experiment, prodrugs (“LY/ER/G”-experiments: stock solution - 3 mM, 5 µL, final concentration: 30 µM; “Mit”- experiment: stock solutions - 0.5, 1 and 3 mM, 5 µL, final concentrations: 5, 10, 30 µM) or carrier only (DMSO, 1%, v/v) were added to cells and incubated for 1, 4 and 24 h in a dark chamber filled with CO2 (5 %) at 37 °C. The cells were washed twice with DPBS buffer and the medium was replaced with HBSS (Hanks' Balanced Salt solution, 500 μL).
Stock solutions of different dyes (5 µL) were added: concentrations of the stock solutions were 4 mg/L for Acridine orange (AO), 10 mg/L for Rhodamine 123 (R123), 1 µM for ER-Tracker-Green (ERG) and 10 µM for Golgi-Staining-Green (GO). […]
Final concentrations of solutions were 40 µ g/L for AO, 100 µ g/L for R123, 0.01 µ M for ERG and 0.1 µ M for GO. The cells were incubated in the dark chamber filled with CO 2 (5%) at 37 ° C for 20 min. Afterwards the supernatant was removed, the cells were washed with DPBS buffer twice and detached from the culture dish using t rypsin/EDTA (0.025%/0.01%, v/v, 200 µ L). Next, the cells were re -suspended in fresh medium. Finally, the fluorescence of live cells (the number of total events was 5000, λex = 488 nm, λ em = 530 nm) in the suspensions was determined by using flow cytometry (N=3, Figure 3, S56).
Figure S56. Effects of the prodrugs on mitochondria membrane potential (MMP) of A2780 cell lines after 1 -48 h incubation. *: p< 0.05; **: p< 0.01; ***: p< 0.001 , Student’s t test. […]
reference (labelled on the plot). […]

[2] = n-octanol/water partition coefficient (logP) by RP-TLC; assay type: physicochemical
Method: Determination of n-octanol/water partition coefficients (LogP) […]
mixture of dichloromethane/CH3OH at proper concentrations. Commercially available […]
7.4) (6/4, v/v) was used. The solvent migration distance was around 4.5 cm. The plates […]
and its distance was manually measured. All measurements were done in at least triplicate and average values were used in further calculations. All experiments were performed at ambient temperature (22 ± 2 °C). […]

A2780 cells [3] = test: Accumulation of prodrugs in A2780 cells (atomic emission spectrometry of B, Fe); assay type: cell-based, human; settings: 5 µM, 4 h, Zn as internal standard, carrier = 1
Method: colored arrow. After the initial lagging period, the oxidation reactions reach their maximum […]
Accumulation of prodrugs in A2780 cells
A2780 cells (around 150 cells/µL, 40 mL) were seeded in T175 flasks (Greiner, Germany) in RPMI 1640 medium supplemented with 5% FBS, 1% L-glutamine, and 1% penicillin/streptomycin and incubated for 3-4 days at 37°C in the chamber filled with 5%
CO2. Next, a fresh portion of RPMI 1640 medium supplemented with 5% FBS, 1% L - glutamine, and 1% penicillin/streptomycin was added to replace old medium. Prodrugs ([…], 400 µL in DMSO, final concentration: 5 µM) or carrier (DMSO, 400 µL, final concentration: 1%. v/v) were added into the bottles and the cells were further incubated at 37°C for 4 h. The cells were washed with DPBS (2 x 10 mL) and trypsinated (trypsin/EDTA, 0.025%/0.01%, v/v, 2 mL). After the cells were harvested and centrifuged (5 min, 1000 rpm) in 50 mL falcon tube, the cell pellet was re-suspended in DPBS (1 mL), the suspension - transferred to 1.5 mL EP tube and centrifuged one more time (2 min, 2000 rpm). The obtained cell pellet was shaken with concentrated HNO3 (65%, 100 µL) in an Eppendorf Thermomixer for 10 min at 95° C, 600 rpm. […] The insoluble components were separated by centrifugation (30 min, 13000 rpm) and the supernatant was analyzed by atomic emission spectrometry (AES) for the detection of B, Zn and Fe. […]

SMILES: CC1(C)OB(c2ccc(COC(=O)N(Cc3cccc(CN4CCCCC4)c3)[c-]3cccc3)cc2)OC1(C)C.[Fe+2].c1cc[cH-]c1 [5b]
- IC50 (BL-2 cells; BL-2, 48 h incubation): 5 ± 2 µM
- IC50 (BL-2 cells; BL-2, 96 h incubation): 5 ± 3 µM
- effect on lysosomes (LY), endoplasmic reticulum (ER) and Golgi (GO) staining (A2780 cells [1]): strongly affected lysosomes

SMILES: CC1(C)OB(c2ccc(COC(=O)N(Cc3cn(Cc4ccc(Cn5cc(Cc6ccccc6)nn5)cc4)nn3)[c-]3cccc3)cc2)OC1(C)C.[Fe+2].c1cc[cH-]c1 [2c]
- logP (Hydrolyzed Prodrug) ([2]; n-octanol/water partition coefficient of the hydrolyzed boronic acid (_BA) form of the prodrug named): 3.23 ± 0.11
- logP (Prodrug) ([2]; n-octanol/water partition coefficient of the intact prodrug (or control 2c_c), RP-TLC, MOPS pH 7.4): 5.37 ± 0.15
- Relative iron amount (A2780 cells [3]): 5.0 ± 0.1
- IC50 (BL-2 cells; BL-2, 48 h incubation): 40.1 ± 6.4 µM
- IC50 (BL-2 cells; BL-2, 96 h incubation): 5.7 ± 2.7 µM
- effect on lysosomes (LY), endoplasmic reticulum (ER) and Golgi (GO) staining (A2780 cells [1]): affected neither LY nor ER nor GO
- MMP compared to the MMP of untreated cells (A2780 cells [1]; A2780, 1 h incubation): 69 ± 11%
- MMP compared to the MMP of untreated cells (A2780 cells [1]; A2780, 24 h incubation): 30 ± 5%

SMILES: CCOC(=O)CCCCCn1cc(CN(C(=O)OCc2ccc(B3OC(C)(C)C(C)(C)O3)cc2)[c-]2cccc2)nn1.[Fe+2].c1cc[cH-]c1 [compound 1]
- logP (Hydrolyzed Prodrug) [2]: 2.83 ± 0.07
- logP (Prodrug) ([2]; pH 7.4): 4.87 ± 0.05
- Relative iron amount (A2780 cells [3]): 1.4 ± 0.1
- IC50 (BL-2 cells; BL-2, 48 h incubation): 35 ± 2 µM
- IC50 (BL-2 cells; BL-2, 96 h incubation): 16.9 µM and 17 µM

SMILES: [Fe+2].c1cc[cH-]c1.c1cc[cH-]c1 [compound 6, ferrocene]
- IC50 (BL-2 cells; BL-2, 48 h incubation): > 100 µM
- IC50 (BL-2 cells; BL-2, 96 h incubation): > 100 µM
